Measured values as given in US6964959B2, “Use of a methylol-containing compound to treat tumors” (Carter Wallace, Inc., priority 1999, dated 2005).
“Also recorded” adds a separate entry of the source.

Tests used:
[1] = tested on: PA-1; assay: Flow cytometry cell cycle distribution / DNA debris, PA-1; type: cell-based, human
Method: Three×10^5 cells were seeded in plastic tissue culture flasks. […] Control cultures received an appropriate volume of Kollidine-17P. […] The percentage of DNA debris in the sub-G0/G1 region was assessed using cytofluorometric techniques.
For flow cytometry studies, 1×10^6 PA-1, SKOV-3, or NIH-3T3 cells were incubated for 24 h in appropriate media containing serum. […] Control cultures for each cell line were incubated in media containing 40 μl of 5% Kollidon 17PF alone. Forty-eight hours later, all cells were harvested by trypsinization and prepared for cytofluorometric analysis by standard methods. For example, harvested cells were resuspended in ice cold phosphate-buffered saline at a final cell density of 2×10^6 cells/ml. The cells then were stained for 30 min at room temperature in the dark with a solution of 0.05 mg/ml propidium iodide, 0.6% Igepal, and 1% sodium citrate. Flow cytometry was performed by FACScan (Becton Dickinson, Plymouth, England) using the ModFit LT program (Becton Dickinson). Statistical analysis was performed with the Kruskal Wallis non-parametric ANOVA test followed by Dunn's multiple comparisons test using Instat.
Three×10^5 cells were seeded in plastic tissue culture flasks. […] Control cultures received an appropriate volume of Kollidine-17P. After an additional 48 h, cells were harvested, stained with propidium iodide, and cell cycle distribution assessed using cytofluorometric techniques. Each value represents the percentage of cells in the noted cell cycle phases and is the mean±SEM of three determinations.

[2] = tested on: 3T3 cells; assay: DNA fragmentation, normal 3T3 cells; type: cell-based
From the text: This DNA fragmentation was not observed in normal 3T3 cells.

[3] = tested on: activated human T-cell cultures; assay: Cytotoxic and apoptotic activity in activated human T-cell cultures; type: cell-based
From the text: This observation was confirmed using normal (non-tumor) primary cells derived from animals, which are known to be free of tumors.

[4] = Taurolidine-induced toxicity in athymic (nude) female mice; type: in vivo; details: for mortality (%): i.p., three consecutive days, nude female mice
Method: Control animals received 1 ml injections of 5% Kollidon 17PF alone. Animals were examined daily and body weight recorded twice weekly. A reduction in body weight of greater than 10% was considered significant. The maximally tolerated dose (MTD) was considered to be the dose which produced ˜10% mortality.
During the injection regimen, and daily thereafter for 30 d, mice were weighed and examined. Experiments were repeated a minimum of three times and mortality and weight loss data pooled.

[5] = tested on: PARP; assay: Western-blot analysis of PARP cleavage, PA-1 cells; type: cell-based, human; details: 24 h exposure to 50 or 100 μM
Method: (§1) Two×10^6 cells were seeded in 150 cm^2 tissue culture flasks. […] After an additional twenty-four hours, cells were harvested, cell number determined, and aliquots derived from equal cell numbers generated from each exposure condition. Total proteins from these whole cell lysates were separated by SDS-PAGE and transferred to nitrocellulose filters. Filters were then immunoblotted to detect intact PARP protein and cleavage fragments by using the clone C-2-10 mouse monoclonal anti-PARP antibody (Zymed Laboratories, San Francisco, Calif.). The resulting protein-antibody complexes were visualized by chemiluminescence techniques.
(§2) Western-blot analysis was used to assess of PARP cleavage. Two×10^6 cells were seeded into separate 75 cm^2 tissue culture flasks containing 20 ml of tissue culture media plus serum. […] Twenty-four hours after the addition of Taurolidine, cells were harvested, cell number determined, and aliquots containing an equal cell number were generated from each exposure condition. Total proteins from whole cell lysates generated from these aliquots were separated by SDS-PAGE and electrotransferred to nitrocellulose filters. Filters were then processed to detect intact PARP protein and cleavage fragments by using the clone C-2-10 mouse monoclonal anti-PARP antibody (Zymed Laboratories, San Francisco, Calif.). […]

[6] = tested on: PA-1; assay: Annexin-V FITC binding (phosphotidylserine externalization), PA-1; type: cell-based, human; details: 24 h exposure
Method: Three×10^5 cells were seeded in plastic tissue culture flasks. […] Control cultures received an appropriate volume of Kollidine-17P. After an additional 24 h, cells were harvested and phosphotidylserine externalization determined by assessing Annexin-V FITC binding using cytofluorometric techniques. Each bar represents the mean±SE of four determinations. **p≦0.01, ***p≦0.001
Cell membrane phosphotidylserine externalization, as a reflection of the potential induction of apoptosis, was assessed by flow cytometry methods using the ApoAlert® Annexin-V/FITC assay kit. Briefly, 1×10^6 cells were incubated for 24 h in tissue culture medium containing serum. […] Control cultures received 5% Kollidon 17PF alone. Twenty-four hours later, all cells were harvested by trypsinization. The harvested cells were resuspended in 200 μl of binding buffer and then incubated for 5-15 min in a solution containing 1 μg/ml Annexin-V FITC at room temperature in the dark. The cells were then analyzed to quantitate Annexin-V binding by cytofluorometric techniques that utilized FACScan using the ModFit LT program with statistical analysis as described above.

[7] = tested on: PARP; assay: Western-blot analysis of PARP cleavage, NIH-3T3 cells; type: cell-based, murine; details: 24 h exposure to 50 or 100 μM
Method: as §1, §2

[8] = tested on: PARP; assay: Western-blot analysis of PARP cleavage, SKOV-3 cells; type: cell-based, human; details: 24 h exposure to 50 or 100 μM
Method: as §1, §2

[9] = tested on: SKOV-3 human ovarian tumor xenografts; assay: i.p. SKOV-3 human ovarian tumor xenografts in female nude mice; type: in vivo
From the text: Fourteen days following the final Taurolidine injection, mice in all groups were sacrificed and the peritoneal cavity examined for the presence of tumors. Each experimental was repeated three times and the pooled number of animals in each group ranged from 15-21.
Fourteen days following the final Taurolidine injection, mice in all groups were sacrificed, i.p. ovarian tumor xenografts removed and tumor weighed. Each experiment was repeated three times and the pooled number of animals in each group ranged from 15-21. Each bar represents the mean (±SE) tumor weight of 15-21 animals. ***p≦0.001, ****p≦0.0001.
To evaluate therapeutic effectiveness, mice received a single intraperitoneal injection of 5×10^6 SKOV-3 cells in a volume of 0.5 ml. Immediately thereafter, mice were randomly divided into treatment groups of 7 animals. […] Control animals received 1 ml injections of 5% Kollidon 17PF alone. Animals were examined daily and body weight recorded twice weekly. […] The mean tumor weight for each treatment group was calculated and statistical analysis of differences in the mean tumor weight between treatment groups employed the Student's t-test. p-values of ≦0.05 were considered significant.

[10] = tested on: Bcl2-over expressing HL-60 cells; assay: Apoptosis induction in Bcl2-over expressing HL-60 cells; type: cell-based, human
From the text: Human leukemia HL-60 cells, which were genetically-engineered to resist apoptotic induction, were induced to apoptosis independently (downstream) of the bcl-2/bax (anti-death gene) point in the signal transduction cascade.

In the case of `O=S1(=O)CCN(CN2CCS(=O)(=O)NC2)CN1` [Taurolidine, Bis-(1,1-dioxoperhydro-1,2,4-thiadiazinyl-4)methane], the “cell cycle kinetics and distribution” value ([1]; PA1, 24-hour exposure) was “significantly reduced the percentage of cells in both the S- and G2/M-phases”, the “effect on cell cycle distribution” value ([1]; PA-1, 48 h exposure, up to 100 μM) was “little effect on the cell cycle; also recorded: little effect on cell cycle distribution” and the “DNA debris in the sub-G0/G1 region” value ([1]; PA-1, 48 h exposure, 25-100 μM) was “significantly increased DNA debris; also recorded: resulted in the appearance of DNA debris”. For the same compound, the DNA fragmentation ([2]; 3T3, 24-hour exposure) was “not observed”, the “DNA fragmentation by agarose-gel electrophoresis” value ([2]; 3T3 cells, identical regimen (50 μM)) was “not apparent” and the induction of apoptosis [3] was “did not produce cellular changes consistent with the induction of apoptosis”. For the same compound, the “mortality (%)” value ([4]; 10 mg/mouse/inj) was 6%, the “mortality (%)” value ([4]; 20 mg/mouse/inj) was 13% and the “mortality (%)” value ([4]; 25 mg/mouse/inj) was 47%. The “mortality (%)” value ([4]; 30 mg/mouse/inj) was 100%, the tolerability ([4]; daily doses below 15 mg/mouse (˜650 mg/kg), 3 d i.p. bolus regimen) was “well-tolerated” and the PARP cleavage [5] was “induced PARP cleavage; also recorded: resulted in PARP cleavage”. The “increase in Annexin-V binding (Annexin-V positive cells)” value [6] was 4 fold, the PARP cleavage [7] was “little evidence of this proteolytic event” and the PARP cleavage ([7]; listed as taurolidine) was “PARP cleavage was not evident”. For the same compound, the PARP cleavage [8] was “induced PARP cleavage; also recorded: resulted in PARP cleavage”, the ascites formation ([9]; 20 mg/mouse/injection i.p. x 3 d starting on the day of tumor cell injection) was “no evidence of ascites formation” and the “tumor formation and growth” value ([9]; 3 d 20 mg/mouse i.p. regimen, nude mice bearing i.p. human ovarian tumor xenografts) was “significant inhibition of both tumor formation and growth; also recorded: significantly inhibited tumor development and growth; also recorded: highly effective and inhibited tumor formation”. The tumor growth ([9]; single cycle initiated 5 d after tumor cell injection (established i.p. tumors)) was “significantly inhibiting tumor growth”, the “mean tumor size in treated mice vs controls” value ([9]; therapy delayed for up to 3 d after tumor cell injection) was “significantly smaller than in controls” and the induction of apoptosis [10] was “capable of inducing apoptosis, but with a delayed onset”.
